Test results published in ChEMBL document CHEMBL3745696, “Synthesis and cytotoxic activity of novel hexahydropyrrolo[2,3-b]indole imidazolium salts” (Bioorg Med Chem Lett, 2016).

What was measured:
Assay type in all cases: functional, cell-based
[1] = Cytotoxicity against human HL60 cells by MTT assay; settings: HL-60
[2] = Cytotoxicity against human SMMC7721 cells by MTT assay; settings: SMMC-7721
A549 = experiment: Cytotoxicity against human A549 cells by MTT assay
MCF7 = experiment: Cytotoxicity against human MCF7 cells by MTT assay
SW480 = experiment: Cytotoxicity against human SW480 cells by MTT assay

Compound	IC50 [1] [µM]	IC50 [2] [µM]	IC50 (A549) [µM]	IC50 (MCF7) [µM]	IC50 (SW480) [µM]
COc1ccc(C(=O)C[n+]2c(C)n(CC(=O)N3CCC4(C)c5ccccc5N(Cc5ccccc5)C34)c3ccccc32)cc1 (stereo not given)	4.18	8.83	12.5	6.99	8.38
Cc1n(CC(=O)N2CCC3(C)c4ccccc4N(C)C23)cc[n+]1CC(=O)c1ccccc1 (stereo not given)	> 20	> 20	> 20	> 20	> 20
Cc1cc2ncn(CC(=O)N3CCC4(C)c5ccccc5N(C)C34)c2cc1C (stereo not given)	> 20	> 20	> 20	> 20	> 20
CN1c2ccccc2C2(C)CCN(C(=O)Cn3c[n+](CC(=O)c4ccccc4)c4ccccc43)C12 (stereo not given)	> 20	> 20	> 20	> 20	> 20
COc1ccc(C(=O)C[n+]2cn(CC(=O)N3CCC4(C)c5ccccc5N(Cc5ccccc5)C34)c3cc(C)c(C)cc32)cc1 (stereo not given)	1.64	5.07	7.4	2.35	1.5
Cc1ccc(C[n+]2ccn(CC(=O)N3CCC4(C)c5ccccc5N(Cc5ccccc5)C34)c2C)cc1 (stereo not given)	0.47	19.5	> 20	7.26	9.71
CN1c2ccccc2C2(C)CCN(C(=O)Cn3cc[n+](CC(=O)c4ccccc4)c3)C12 (stereo not given)	> 20	> 20	> 20	> 20	> 20
CN1c2ccccc2C2(C)CCN(C(=O)Cn3c[n+](CC(=O)c4ccc5ccccc5c4)c4ccccc43)C12 (stereo not given)	5.98	> 20	> 20	11	8.56
CC12CCN(C(=O)Cn3c[n+](CC(=O)c4ccccc4)c4ccccc43)C1N(Cc1ccccc1)c1ccccc12 (stereo not given)	5.72	14.5	> 20	8.16	8.43
COc1ccc(C(=O)C[n+]2ccn(CC(=O)N3CCC4(C)c5ccccc5N(C)C34)c2)cc1 (stereo not given)	> 20	> 20	> 20	> 20	> 20
Cc1n(CC(=O)N2CCC3(C)c4ccccc4N(C)C23)cc[n+]1CC(=O)c1ccc(Br)cc1 (stereo not given)	> 20	> 20	> 20	> 20	> 20
CN1c2ccccc2C2(C)CCN(C(=O)Cn3cc[n+](CC(=O)c4ccc(Br)cc4)c3)C12 (stereo not given)	> 20	> 20	> 20	> 20	> 20
COc1ccc(C(=O)C[n+]2ccn(CC(=O)N3CCC4(C)c5ccccc5N(Cc5ccccc5)C34)c2C)cc1 (stereo not given)	1.3	> 20	> 20	10.6	> 20
COc1ccc(C(=O)C[n+]2cn(CC(=O)N3CCC4(C)c5ccccc5N(C)C34)c3ccccc32)cc1 (stereo not given)	> 20	> 20	> 20	> 20	> 20
CN1c2ccccc2C2(C)CCN(C(=O)Cn3c[n+](CC(=O)c4ccc(Br)cc4)c4ccccc43)C12 (stereo not given)	> 20	> 20	> 20	> 20	> 20
CC12CCN(C(=O)Cn3c[n+](Cc4ccc(Br)cc4)c4ccccc43)C1N(Cc1ccccc1)c1ccccc12 (stereo not given)	1.42	7.53	7.59	3.87	7.43
CN1c2ccccc2C2(C)CCN(C(=O)Cn3cc[n+](CC(=O)c4ccc5ccccc5c4)c3)C12 (stereo not given)	> 20	> 20	> 20	> 20	> 20
Cc1n(CC(=O)N2CCC3(C)c4ccccc4N(Cc4ccccc4)C23)c2ccccc2[n+]1CC(=O)c1ccccc1 (stereo not given)	4.64	9.28	14.7	6.35	8.31
CC12CCN(C(=O)Cn3c[n+](CC(=O)c4ccc(Br)cc4)c4ccccc43)C1N(Cc1ccccc1)c1ccccc12 (stereo not given)	2.93	8.43	8.07	8.15	9.18
Cc1n(CC(=O)N2CCC3(C)c4ccccc4N(Cc4ccccc4)C23)cc[n+]1CC(=O)c1ccc2ccccc2c1 (stereo not given)	2.2	4.79	11.2	5.67	7.78
Cc1n(CC(=O)N2CCC3(C)c4ccccc4N(C)C23)c2ccccc2[n+]1CC(=O)c1ccccc1 (stereo not given)	> 20	> 20	> 20	> 20	> 20
CN1c2ccccc2C2(C)CCN(C(=O)Cn3c[n+](Cc4ccccc4Br)c4ccccc43)C12 (stereo not given)	5.07	> 20	> 20	14	> 20
COc1ccc(C(=O)C[n+]2cn(CC(=O)N3CCC4(C)c5ccccc5N(Cc5ccccc5)C34)c3ccccc32)cc1 (stereo not given)	5.94	10	> 20	7.83	8.35

Compound	IC50 [1] [µM]	IC50 [2] [µM]	IC50 (A549) [µM]	IC50 (MCF7) [µM]	IC50 (SW480) [µM]
Cc1n(CC(=O)N2CCC3(C)c4ccccc4N(Cc4ccccc4)C23)cc[n+]1CC(=O)c1ccc(Br)cc1 (stereo not given)	7.75	> 20	> 20	> 20	> 20
COc1ccc(C(=O)C[n+]2ccn(CC(=O)N3CCC4(C)c5ccccc5N(C)C34)c2C)cc1 (stereo not given)	> 20	> 20	> 20	> 20	> 20
CC12CCN(C(=O)Cn3c[n+](CC(=O)c4ccc5ccccc5c4)c4ccccc43)C1N(Cc1ccccc1)c1ccccc12 (stereo not given)	1.64	7.62	7.4	5.13	6.88
Cc1cc2c(cc1C)[n+](CC(=O)c1ccccc1)cn2CC(=O)N1CCC2(C)c3ccccc3N(Cc3ccccc3)C12 (stereo not given)	1.47	5.78	6.54	3.51	7.09
Cc1cc2c(cc1C)[n+](Cc1ccc(Br)cc1)cn2CC(=O)N1CCC2(C)c3ccccc3N(Cc3ccccc3)C12 (stereo not given)	1.29	3.59	6.37	1.72	1.41
Cc1cc2c(cc1C)[n+](Cc1ccc3ccccc3c1)cn2CC(=O)N1CCC2(C)c3ccccc3N(Cc3ccccc3)C12 (stereo not given)	1.21	2.27	4.8	1.68	1.76
Cc1ccc(C[n+]2cn(CC(=O)N3CCC4(C)c5ccccc5N(Cc5ccccc5)C34)c3cc(C)c(C)cc32)cc1 (stereo not given)	1.23	1.74	4.84	1.86	1.77
Cc1n(CC(=O)N2CCC3(C)c4ccccc4N(Cc4ccccc4)C23)c2ccccc2[n+]1CC(=O)c1ccc(Br)cc1 (stereo not given)	4.25	5.99	9.87	7.37	8.86
Cc1n(CC(=O)N2CCC3(C)c4ccccc4N(C)C23)cc[n+]1Cc1ccc(Br)cc1 (stereo not given)	> 20	> 20	> 20	> 20	> 20
CC12CCN(C(=O)Cn3c[n+](Cc4ccccc4Br)c4ccccc43)C1N(Cc1ccccc1)c1ccccc12 (stereo not given)	1.21	4.69	6.76	2.23	6.35
Cc1ccc(C[n+]2c(C)n(CC(=O)N3CCC4(C)c5ccccc5N(Cc5ccccc5)C34)c3ccccc32)cc1 (stereo not given)	1.25	2.97	6.63	1.98	1.62
Cc1n(CC(=O)N2CCC3(C)c4ccccc4N(Cc4ccccc4)C23)cc[n+]1CC(=O)c1ccccc1 (stereo not given)	> 20	> 20	> 20	> 20	> 20
Cc1n(CC(=O)N2CCC3(C)c4ccccc4N(C)C23)cc[n+]1CC(=O)c1ccc2ccccc2c1 (stereo not given)	> 20	> 20	> 20	> 20	> 20
CN1c2ccccc2C2(C)CCN(C(=O)Cn3c[n+](Cc4ccc(Br)cc4)c4ccccc43)C12 (stereo not given)	6.96	> 20	> 20	8.93	> 20
CN1c2ccccc2C2(C)CCN(C(=O)Cn3c[n+](Cc4ccc5ccccc5c4)c4ccccc43)C12 (stereo not given)	2.8	7.45	14.1	6.86	7.95
Cc1n(CC(=O)N2CCC3(C)c4ccccc4N(Cc4ccccc4)C23)c2ccccc2[n+]1Cc1ccccc1Br (stereo not given)	1.33	2.27	7.34	2.5	4.62
Cc1ccc(C[n+]2cn(CC(=O)N3CCC4(C)c5ccccc5N(C)C34)c3ccccc32)cc1 (stereo not given)	5.13	> 20	> 20	9.47	> 20
Cc1cc2c(cc1C)[n+](CC(=O)c1ccc(Br)cc1)cn2CC(=O)N1CCC2(C)c3ccccc3N(Cc3ccccc3)C12 (stereo not given)	1.55	6.22	8.01	2.78	1.68
Cc1ccc(C[n+]2ccn(CC(=O)N3CCC4(C)c5ccccc5N(C)C34)c2C)cc1 (stereo not given)	> 20	> 20	> 20	> 20	> 20
Cc1n(CC(=O)N2CCC3(C)c4ccccc4N(Cc4ccccc4)C23)c2ccccc2[n+]1Cc1ccc(Br)cc1 (stereo not given)	1.35	5.1	7.91	2.4	6.11
Cc1ccc(C[n+]2cn(CC(=O)N3CCC4(C)c5ccccc5N(Cc5ccccc5)C34)c3ccccc32)cc1 (stereo not given)	1.2	4.98	6.23	2.72	6.57
CN1c2ccccc2C2(C)CCN(C(=O)Cn3cc[n+](Cc4ccc(Br)cc4)c3)C12 (stereo not given)	> 20	> 20	> 20	> 20	> 20
